Earlier results as cited in patent US20190046552A1, “COMPOSITIONS AND METHODS FOR THE TREATMENT OF HCV INFECTION” (priority 2015, published 2019).

Tested on: panel of cell lines
Settings: read-out: 50% cytotoxic concentration (CC50), Coughlin et al. 2010; cited from earlier work

In the case of `CO[C@H]1C(OP(=O)(OC[C@H]2O[C@@H](n3cnc4c(N)ncnc43)CC2O)SCOC(=O)OC(C)C)[C@@H](CO)O[C@H]1n1ccc(=O)[nH]c1=O` (stereo partly shown) [Formula (II)], the CC50 is given as over 1000 µM.
